# Literature values, collected in US9517268B2, “Process for producing inorganic particulate material” (MERCK PATENT GMBH, priority 2011, dated 2016).
# Settings: pH 7
smiles,measurement,value
CCC(C)n1ncn(-c2ccc(N3CCN(c4ccc(OCC5COC(Cn6cncn6)(c6ccc(Cl)cc6Cl)O5)cc4)CC3)cc2)c1=O (stereo not shown) [Itraconazole],solubility in aqueous solutions,1 ng/mL
